Assay [1] deals with IKZF1 (Homo sapiens, UniProt Q13422+Q96SW2). Kind of assay: Prolabel quantification of IKZF1 protein levels in 293GT cells. As to conditions: Prolabel assay, read-out: IKZF1 EC50. Type of assay: cell-based.
For assay [2], the target named is IKZF2 (Homo sapiens, UniProt Q96SW2+Q9UKS7). Kind of assay: Prolabel quantification of IKZF2 protein levels in 293GT cells. The following applies: 293GT cells; for inhibition at 10 µM: read-out: IKZF2 % protein reduction at 10 μM, 24 h; for DC50: Prolabel assay, read-out: IKZF2 EC50. Type of assay: cell-based.
IKZF2, sequence (Q9UKS7 whole entry): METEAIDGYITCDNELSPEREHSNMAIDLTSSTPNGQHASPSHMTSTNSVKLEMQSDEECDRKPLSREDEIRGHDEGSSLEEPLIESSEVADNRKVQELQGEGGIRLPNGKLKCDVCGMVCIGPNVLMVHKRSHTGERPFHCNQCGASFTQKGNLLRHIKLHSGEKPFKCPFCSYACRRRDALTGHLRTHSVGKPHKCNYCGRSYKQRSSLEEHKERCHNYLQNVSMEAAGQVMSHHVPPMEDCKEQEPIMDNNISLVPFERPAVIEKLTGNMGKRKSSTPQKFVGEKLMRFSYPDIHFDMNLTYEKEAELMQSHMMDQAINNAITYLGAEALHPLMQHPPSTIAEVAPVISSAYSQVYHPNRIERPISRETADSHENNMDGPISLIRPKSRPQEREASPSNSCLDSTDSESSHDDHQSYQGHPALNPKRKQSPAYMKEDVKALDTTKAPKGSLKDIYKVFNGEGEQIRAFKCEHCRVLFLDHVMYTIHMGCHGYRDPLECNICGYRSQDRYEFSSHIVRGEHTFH
IKZF2, sequence (Q96SW2 whole entry): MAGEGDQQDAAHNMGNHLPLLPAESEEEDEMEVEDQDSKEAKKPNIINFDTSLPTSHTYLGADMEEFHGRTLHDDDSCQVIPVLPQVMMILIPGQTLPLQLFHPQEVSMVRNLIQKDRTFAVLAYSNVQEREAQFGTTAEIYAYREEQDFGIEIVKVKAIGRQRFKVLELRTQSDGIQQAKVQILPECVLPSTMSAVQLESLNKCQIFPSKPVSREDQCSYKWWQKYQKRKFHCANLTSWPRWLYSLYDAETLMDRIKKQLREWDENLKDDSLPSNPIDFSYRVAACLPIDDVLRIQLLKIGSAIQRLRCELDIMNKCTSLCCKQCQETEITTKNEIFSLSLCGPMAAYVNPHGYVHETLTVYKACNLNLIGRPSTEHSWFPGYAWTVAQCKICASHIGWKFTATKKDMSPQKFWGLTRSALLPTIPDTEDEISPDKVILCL
IKZF2, sequence (Q16531 whole entry partner): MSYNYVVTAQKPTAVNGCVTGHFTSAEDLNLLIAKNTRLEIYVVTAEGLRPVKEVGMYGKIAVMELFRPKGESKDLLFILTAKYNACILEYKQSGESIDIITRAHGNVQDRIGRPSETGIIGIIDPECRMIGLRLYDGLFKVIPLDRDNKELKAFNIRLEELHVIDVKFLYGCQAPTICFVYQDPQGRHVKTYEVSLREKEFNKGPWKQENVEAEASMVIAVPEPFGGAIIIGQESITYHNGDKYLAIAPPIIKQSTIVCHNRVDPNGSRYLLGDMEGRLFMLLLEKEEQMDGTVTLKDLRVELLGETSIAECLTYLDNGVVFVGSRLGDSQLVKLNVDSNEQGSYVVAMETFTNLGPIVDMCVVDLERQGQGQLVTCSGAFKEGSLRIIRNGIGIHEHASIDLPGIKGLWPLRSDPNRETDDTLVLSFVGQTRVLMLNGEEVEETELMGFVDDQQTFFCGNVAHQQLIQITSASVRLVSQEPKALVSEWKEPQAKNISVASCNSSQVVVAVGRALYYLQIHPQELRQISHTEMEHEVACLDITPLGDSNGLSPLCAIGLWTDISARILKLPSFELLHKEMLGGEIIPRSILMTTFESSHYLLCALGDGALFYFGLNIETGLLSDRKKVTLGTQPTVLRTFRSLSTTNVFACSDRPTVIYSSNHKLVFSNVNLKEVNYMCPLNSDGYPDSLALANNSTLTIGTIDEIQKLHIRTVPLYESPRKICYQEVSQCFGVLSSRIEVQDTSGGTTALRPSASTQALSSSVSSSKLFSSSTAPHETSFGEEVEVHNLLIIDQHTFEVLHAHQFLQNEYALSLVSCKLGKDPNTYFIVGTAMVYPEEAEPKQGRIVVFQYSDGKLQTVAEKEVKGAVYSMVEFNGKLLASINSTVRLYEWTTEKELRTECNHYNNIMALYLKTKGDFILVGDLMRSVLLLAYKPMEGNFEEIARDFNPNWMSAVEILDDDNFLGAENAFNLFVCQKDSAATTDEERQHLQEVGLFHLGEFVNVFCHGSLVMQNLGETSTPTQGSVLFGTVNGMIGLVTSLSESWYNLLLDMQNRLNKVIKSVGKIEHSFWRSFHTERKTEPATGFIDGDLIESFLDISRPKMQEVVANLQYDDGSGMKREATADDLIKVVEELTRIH

Read-outs that look alike come from different tables or passages of the source.

IKZF1, sequence (Q13422 whole entry): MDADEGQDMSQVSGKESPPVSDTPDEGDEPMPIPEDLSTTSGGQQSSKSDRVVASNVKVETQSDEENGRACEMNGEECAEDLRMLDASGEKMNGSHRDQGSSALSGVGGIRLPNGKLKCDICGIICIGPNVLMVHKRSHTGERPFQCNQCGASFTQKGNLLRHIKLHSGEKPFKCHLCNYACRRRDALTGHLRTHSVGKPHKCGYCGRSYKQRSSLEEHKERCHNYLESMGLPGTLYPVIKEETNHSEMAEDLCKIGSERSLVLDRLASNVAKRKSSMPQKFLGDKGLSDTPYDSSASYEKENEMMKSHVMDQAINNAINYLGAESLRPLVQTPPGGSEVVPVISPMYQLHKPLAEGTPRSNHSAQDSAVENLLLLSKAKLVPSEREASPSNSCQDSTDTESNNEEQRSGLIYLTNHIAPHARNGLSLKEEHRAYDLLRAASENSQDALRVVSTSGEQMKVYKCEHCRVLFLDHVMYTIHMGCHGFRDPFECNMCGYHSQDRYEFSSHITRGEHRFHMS
IKZF1, sequence (Q96SW2 whole entry): as the sequence (Q96SW2 whole entry) above
IKZF1, sequence (Q16531 whole entry partner): as the sequence (Q16531 whole entry partner) above

Turning to `O=C1CCC(N2Cc3cc(C4CCN(Cc5c[nH]nc5-c5cccnc5)CC4)ccc3C2=O)C(=O)N1` (stereo not drawn) [Compound I-151, 3-(1-oxo-5-(1-((3-(pyridin-3-yl)-1H-pyrazol-4-yl)methyl)piperidin-4-yl)isoindolin-2-yl)piperidine-2,6-dione], the DC50 was greater than 30000 nM in assay [1] and 95 nM in assay [2]. For the same compound, the inhibition at 10 µM in assay [2] (24 h, 10 μM, 24 h) is 60%.
The matching figures for `O=C1CCC(N2Cc3cc(C4CCN(Cc5ncon5)CC4)ccc3C2=O)C(=O)N1` (stereo not drawn) [Compound I-204, 3-(5-(1-((1,2,4-oxadiazol-3-yl)methyl)piperidin-4-yl)-1-oxoisoindolin-2-yl)piperidine-2,6-dione]: greater than 50000 nM, greater than 50000 nM and 0%.
Regarding `O=C(O)Cc1ccc(CN2CCC(c3ccc4c(c3)CN(C3CCC(=O)NC3=O)C4=O)CC2)cc1` (stereo not drawn) [Compound I-231, 2-(4-((4-(2-(2,6-dioxopiperidin-3-yl)-1-oxoisoindolin-5-yl)piperidin-1-yl)methyl)phenyl)acetic acid], the DC50 in assay [1] was greater than 30000 nM; in assay [2], 250 nM. In assay [2] (24 h, 10 μM, 24 h), the inhibition at 10 µM turned out to be 60%.
The matching figures for `Nc1nc(C(F)(F)F)c(CN2CCC(c3ccc4c(c3)CN(C3CCC(=O)NC3=O)C4=O)CC2)s1` (stereo not drawn) [Compound I-234, 3-(5-(1-((2-amino-4-(trifluoromethyl)thiazol-5-yl)methyl)piperidin-4-yl)-1-oxoisoindolin-2-yl)piperidine-2,6-dione]: greater than 30000 nM, 120 nM and 50%.
Regarding `CCN1CCC(c2ccc3c(c2)CN(C2CCC(=O)NC2=O)C3=O)CC1` (stereo not drawn) [Compound I-1, 3-(5-(1-ethylpiperidin-4-yl)-1-oxoisoindolin-2-yl)piperidine-2,6-dione], the DC50 in assay [1] was greater than 30000 nM; in assay [2] it was 67 nM. Moreover, the inhibition at 10 µM in assay [2] (10 μM, 24 h) is 60%.
Take `CC1CN(Cc2ccccc2)CCC1c1ccc2c(c1)CN(C1CCC(=O)NC1=O)C2=O` (stereo not drawn) [Compound I-187, 3-(5-(1-benzyl-3-methylpiperidin-4-yl)-1-oxoisoindolin-2-yl)piperidine-2,6-dione]: the DC50 is greater than 30000 nM in assay [1] and 67 nM in assay [2]. Further, in assay [2] (24 h, 10 μM, 24 h), the inhibition at 10 µM stood at 50%.
The matching figures for `O=C1CCC(N2Cc3cc(C4=CCN(Cc5ccccc5)C4)ccc3C2=O)C(=O)N1` (stereo not drawn) [Compound I-191, 3-(5-(1-benzyl-2,5-dihydro-1H-pyrrol-3-yl)-1-oxoisoindolin-2-yl)piperidine-2,6-dione]: greater than 30000 nM, 4200 nM and 10%.
The corresponding values for `O=C1CCC(N2Cc3cc(C4CCN(Cc5cscn5)CC4)ccc3C2=O)C(=O)N1` (stereo not drawn) [Compound I-238, 3-(1-oxo-5-(1-(thiazol-4-ylmethyl)piperidin-4-yl)isoindolin-2-yl)piperidine-2,6-dione] are greater than 25000 nM, 110 nM and 60%.
The matching figures for `Cn1cc(CN2CCC(c3ccc4c(c3)CN(C3CCC(=O)NC3=O)C4=O)CC2)cn1` (stereo not drawn) [Compound I-115, 3-(5-(1((1-methyl-1H-pyrazol-4-yl)methyl)piperidin-4-yl)-1-oxoisoindolin-2-yl)piperidine-2,6-dione]: greater than 30000 nM, 72 nM and 60%.
On to `O=C1CCC(N2Cc3cc(C4CCN(Cc5cnc(Cl)s5)CC4)ccc3C2=O)C(=O)N1` (stereo not drawn) [Compound I-10, 3-(5-(1-((2-chlorothiazol-5-yl)methyl)piperidin-4-yl)-1-oxoisoindolin-2-yl)piperidine-2,6-dione], for which the DC50 was greater than 30000 nM in assay [1] and 85 nM in assay [2]. Besides, in assay [2] (24 h, 10 μM, 24 h), the inhibition at 10 µM is 60%.
The corresponding values for `Cc1cn(C)c(CN2CCC(c3ccc4c(c3)CN(C3CCC(=O)NC3=O)C4=O)CC2)n1` (stereo not drawn) [Compound I-129, 3-(5-(1-((1,4-dimethyl-1H-imidazol-2-yl)methyl)piperidin-4-yl)-1-oxoisoindolin-2-yl)piperidine-2,6-dione] are greater than 30000 nM, 190 nM and 40%.
With `Cc1ccc2nc(CN3CCC(c4ccc5c(c4)CN(C4CCC(=O)NC4=O)C5=O)CC3)cc(=O)n2c1` (stereo not drawn) [Compound I-221, 3-(5-(1-((7-methyl-4-oxo-4H-pyrido[1,2-a]pyrimidin-2-yl)methyl)piperidin-4-yl)-1-oxoisoindolin-2-yl)piperidine-2,6-dione], the DC50 in assay [1] is greater than 50000 nM; in assay [2], 36 nM. The inhibition at 10 µM in assay [2] (24 h, 10 μM, 24 h) was found to be 30%.
The corresponding values for `O=C1CCC(N2Cc3cc(C4CCN(CC5CCOCC5)CC4)ccc3C2=O)C(=O)N1` (stereo not drawn) [Compound I-13, 3-(1-oxo-5-(1-((tetrahydro-2H-pyran-4-yl)methyl)piperidin-4-yl)isoindolin-2-yl)piperidine-2,6-dione] are greater than 30000 nM, 29 nM and 60%.
The corresponding values for `O=C1CCC(N2Cc3cc(C4CCN(Cc5cccc(OC(F)(F)F)c5)CC4)ccc3C2=O)C(=O)N1` (stereo not drawn) [Compound I-54, 3-(1-oxo-5-(1-(3-(trifluoromethoxy)benzyl)piperidin-4-yl)isoindolin-2-yl)piperidine-2,6-dione] are greater than 30000 nM, 20 nM and 60%.
The matching figures for `COCc1ccc(CN2CCC(c3ccc4c(c3)CN(C3CCC(=O)NC3=O)C4=O)CC2)cc1` (stereo not drawn) [Compound I-248, 3-(5-(1-(4-(methoxymethyl)benzyl)piperidin-4-yl)-1-oxoisoindolin-2-yl)piperidine-2,6-dione]: greater than 30000 nM, 16 nM and 70%.
As to `O=C1CCC(N2Cc3cc(C4CCN(CCc5ccccc5)CC4)ccc3C2=O)C(=O)N1` (stereo not drawn) [Compound I-14, 3-(1-oxo-5-(1-phenethylpiperidin-4-yl)isoindolin-2-yl)piperidine-2,6-dione], the figures for the DC50 in assay [1] and in assay [2] were greater than 30000 nM and 14 nM, respectively. The inhibition at 10 µM in assay [2] (24 h, 10 μM, 24 h) is 65%.
The corresponding values for `Cc1cc2nc(CN3CCC(c4ccc5c(c4)CN(C4CCC(=O)NC4=O)C5=O)CC3)cc(O)n2n1` (stereo not drawn) [Compound I-208, 3-(5-(1-((7-hydroxy-2-methylpyrazolo[1,5-a]pyrimidin-5-yl)methyl)piperidin-4-yl)-1-oxoisoindolin-2-yl)piperidine-2,6-dione] are greater than 30000 nM, 1500 nM and 60%.
As for `O=C1CCC(N2Cc3cc(C4CCN(Cc5ccc6[nH]c(=O)[nH]c6c5)CC4)ccc3C2=O)C(=O)N1` (stereo not drawn) [Compound I-259, 3-(1-oxo-5-(1-((2-oxo-2,3-dihydro-1H-benzo[d]imidazol-5-yl)methyl)piperidin-4-yl)isoindolin-2-yl)piperidine-2,6-dione], the figures for the DC50 in assay [1] and in assay [2] were greater than 30000 nM and 1300 nM, respectively. Also, in assay [2] (24 h, 10 μM, 24 h), the inhibition at 10 µM stood at 60%.
`O=C1CCC(N2Cc3cc(C4CCCN(Cc5ccccc5)CC4)ccc3C2=O)C(=O)N1` (single isomer, unassigned) [Compound I-273, 3-(5-(1-benzylazepan-4-yl)-1-oxoisoindolin-2-yl)piperidine-2,6-dione]: the DC50 in assay [1] is greater than 30000 nM; in assay [2], 210 nM. Also, the “IKZF2 % protein reduction at 10 μM, 24 h” value in assay [2] (10 μM, 24 h) came out at 20%.
